The values that follow come from patent US20070260088A1, “Calcium Trifluoroacetate for Preparing Antiangiogenetic Medicaments” (priority 2004, published 2007).

Structures are written as SMILES.

One series relates to solid tumor cells. As to conditions: disclosed in EP 1 423 131; cited from earlier work.
Series [1] concerns endothelium proliferation. The experiment in a line: endothelium proliferation. It counts as cell-based.
For a further series, the system named is tumor growth. Particulars: disclosed in EP 1 423 131; cited from earlier work.
Series [2] deals with VEGF-induced angiogenesis in Matrigel plugs. Kind of series: murine model of angiogenesis induced by subcutaneous implant of Matrigel containing VEGF. It counts as in vivo, mouse. As to conditions: for reduction in angiogenesis (morphometric analysis, percentage of area covered by vessels): VEGF 40 ng/ml in Matrigel, plugs removed after 7 days, vs VEGF alone. How it is done:
The effect of calcium trifluoroacetate in angiogenesis was evidenced in a murine model of angiogenesis induced by a subcutaneous implant of Matrigel. Matrigel is liquid at 4° C. and solid at 37° C., so that a pro-angiogenetic stimulus can be mixed with Matrigel and inoculated. In this protocol, the selected angiogenetic factor was […], added to the Matrigel together with 16 U/ml heparin, as described in literature (Bussolati B, Altered angiogenesis and survival in human tumor-derived endothelial cells. FASEB J. 2003; Bussolati B, Vascular endothelial growth factor receptor-1 modulates vascular endothelial growth factor-mediated angiogenesis via nitric oxide. Am J Pathol. 2001).
Calcium trifluoroacetate was administered intraperitoneally 30 minutes before Matrigel, then on alternate days (day 2, 4, 6), at a dose of 2 or 4 μg/mouse (0.2 mg/Kg). After 7 days, the animals were killed and the Matrigel plugs were removed for histological examination. Angiogenesis was evaluated by computer assisted morphometric analysis of the percentage of area covered by vessels.
This strong antiangiogenic effect could already be observed macroscopically and confirmed histologically.

In a further series the test system is endothelial cells. Kind of series: effect of endothelial growth factors on calcium entrance into single endothelial cells. It counts as cell-based.

With `O=C([O-])C(F)(F)F.O=C([O-])C(F)(F)F.[Ca+2]` [calcium trifluoroacetate], in the series with solid tumor cells, the “in vitro cytotoxic activity on solid tumor cells” value was “cytotoxic activity”. Further, in series [1], the “action on endothelium proliferation” value was “evident inhibitory action”. Besides, in the series on tumor growth, the “tumor growth in animal experimental models” value is recorded as “inhibit tumor growth”. In addition, the “reduction in angiogenesis (morphometric analysis, percentage of area covered by vessels)” value is reported as “above 40%” in series [2] (2 μg/mouse intraperitoneally on alternate days) and 80% in series [2] (4 μg/mouse intraperitoneally on alternate days). Moreover, the “effect of VEGF on angiogenesis in Matrigel plugs (macroscopic and histological)” value in series [2] (mice treated with calcium trifluoroacetate, VEGF 40 ng/ml) was “dramatically reduced”. In addition, the “effect of endothelial growth factors on calcium entrance into single endothelial cells” value in the series on endothelial cells is reported as “able to block, at least partly”.
